Measured values: PubChem BioAssay AID330 (DTP/NCI, 2004)
Values joined by “and” are separate entries in the source; they are usually repeats but may differ in a detail not shown here. Identical values can stand only once. Toxic doses and inconclusive results are not listed.

Tested on: P388 leukemia ip, CD2F1 mice, survival T/C
Experiment: NCI In Vivo Anticancer Drug Screen. Data for tumor model P388 Leukemia (intraperitoneal) in CD2F1 (CDF1) mice
Conditions: endpoint: median survival time, higher = longer survival
Outline: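 Mice carrying the transplanted tumor received test compound or vehicle. Survival was recorded in each group, and the value is the treated-group measurement divided by that of the vehicle-treated control group.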

[1] = dose: 50.0 mg/kg/injection, schedule: Q01DX005 (ip), vehicle: Klucel (hydroxypropylcellulose) (HPC)
[2] = dose: 100.0 mg/kg/injection, schedule: Q01DX005 (ip), vehicle: Klucel (hydroxypropylcellulose) (HPC)
[3] = dose: 200.0 mg/kg/injection, schedule: Q01DX005 (ip), vehicle: Klucel (hydroxypropylcellulose) (HPC)
[4] = dose: 60.0 mg/kg/injection, schedule: Q01DX005 (ip), vehicle: saline with Tween-80
[5] = dose: 120.0 mg/kg/injection, schedule: Q01DX005 (ip), vehicle: saline with Tween-80
[6] = dose: 240.0 mg/kg/injection, schedule: Q01DX005 (ip), vehicle: saline with Tween-80
[7] = dose: 50.0 mg/kg/injection, schedule: Q01DX009 (ip), vehicle: Klucel (hydroxypropylcellulose) (HPC)
[8] = dose: 100.0 mg/kg/injection, schedule: Q01DX009 (ip), vehicle: Klucel (hydroxypropylcellulose) (HPC)
[9] = dose: 50.0 mg/kg/injection, schedule: Q01DX009 (ip), vehicle: saline with Tween-80
[10] = dose: 100.0 mg/kg/injection, schedule: Q01DX009 (ip), vehicle: saline with Tween-80
[11] = dose: 200.0 mg/kg/injection, schedule: Q01DX009 (ip), vehicle: saline with Tween-80
[12] = dose: 25.0 mg/kg/injection, schedule: Q01DX005 (ip), vehicle: Klucel (hydroxypropylcellulose) (HPC)
[13] = dose: 50.0 mg/kg/injection, schedule: Q01DX009 (ip), vehicle: saline
[14] = dose: 100.0 mg/kg/injection, schedule: Q01DX009 (ip), vehicle: saline
[15] = dose: 200.0 mg/kg/injection, schedule: Q01DX009 (ip), vehicle: saline
[16] = dose: 200.0 mg/kg/injection, schedule: Q01DX009 (ip), vehicle: Klucel (hydroxypropylcellulose) (HPC)

SMILES: CS/N=C(\c1ccccc1)N(C)C
- T/C (dose: 7.5 mg/kg/injection, schedule: Q01DX005 (ip), vehicle: Klucel (hydroxypropylcellulose) (HPC)): 97 % of control
- T/C (dose: 15.0 mg/kg/injection, schedule: Q01DX005 (ip), vehicle: Klucel (hydroxypropylcellulose) (HPC)): 100 % of control

SMILES: CC1(C)C(=O)c2cc(Cl)ccc2C1(C)C
- T/C [1]: 103 % of control
- T/C [2]: 102 % of control
- T/C [3]: 97 % of control

SMILES: O=C(O)C(c1ccccc1)c1cccc(C(C(=O)O)c2ccccc2)n1 (configuration not stated)
- T/C [4]: 105 % of control
- T/C [5]: 100 % of control
- T/C [6]: 102 % of control

SMILES: CCOC(=O)c1c(=O)[nH]c(=O)n2c1[nH]c1ccccc12
- T/C [4]: 93 % of control
- T/C [5]: 91 % of control
- T/C [6]: 90 % of control

SMILES: CC(C)=CCC/C(C)=C/COc1cc(O)c2c(c1)C(=O)c1cc(C)cc(O)c1C2=O
- T/C (dose: 5.0 mg/kg/injection, schedule: Q01DX009 (ip), vehicle: DMSO): 100 % of control
- T/C (dose: 10.0 mg/kg/injection, schedule: Q01DX009 (ip), vehicle: DMSO): 97 % of control
- T/C (dose: 20.0 mg/kg/injection, schedule: Q01DX009 (ip), vehicle: DMSO): 97 % of control

SMILES: COc1cc2c(c(OC)c1OC)-c1ccc(OC)c(=O)cc1C(NC(=O)CO)CC2 (configuration not stated)
- T/C (dose: 0.16 mg/kg/injection, schedule: Q01DX009 (ip), vehicle: Klucel (hydroxypropylcellulose) (HPC)): 104 % of control and 111 % of control
- T/C (dose: 0.62 mg/kg/injection, schedule: Q01DX009 (ip), vehicle: Klucel (hydroxypropylcellulose) (HPC)): 153 % of control and 157 % of control

SMILES: COc1cccc2c1C(=O)c1c(O)c3c(c(O)c1C2=O)C[C@@](O)(C(C)=O)C[C@@H]3OC1CC(N2CCOCC2C#N)C(O)C(C)O1 (some centres not stated)
- T/C (dose: 0.2 mg/kg/injection, schedule: Q04DX003 (ip), vehicle: water): 191 % of control
- T/C (dose: 0.39 mg/kg/injection, schedule: Q04DX003 (ip), vehicle: distilled water + Tween-80): 187 % of control
- T/C (dose: 0.39 mg/kg/injection, schedule: Q04DX003 (ip), vehicle: water): 207 % of control
- T/C (dose: 0.78 mg/kg/injection, schedule: Q04DX003 (ip), vehicle: water): 95 % of control

SMILES: NC1=NC(=O)C(c2ccccc2)S1 (configuration not stated)
- T/C (dose: 12.5 mg/kg/injection, schedule: Q01DX009 (ip), vehicle: Klucel (hydroxypropylcellulose) (HPC)): 103 % of control
- T/C (dose: 25.0 mg/kg/injection, schedule: Q01DX009 (ip), vehicle: Klucel (hydroxypropylcellulose) (HPC)): 99 % of control
- T/C [7]: 113 % of control
- T/C [8]: 105 % of control

SMILES: CC1(C)CC(=O)c2c(oc3ccc(O)cc23)C1
- T/C [1]: 97 % of control
- T/C [2]: 97 % of control
- T/C [3]: 92 % of control

SMILES: CCN(CC)CCOC(=O)CC1CCCCC1
- T/C [9]: 102 % of control
- T/C [10]: 100 % of control
- T/C [11]: 99 % of control

SMILES: COc1ccc(C(=O)N2C3C4C=CC(C4)C3N2C(=O)c2ccc(OC)cc2)cc1 (configuration not stated)
- T/C [12]: 99 % of control
- T/C [1]: 92 % of control and 93 % of control
- T/C [2]: 95 % of control
- T/C [3]: 88 % of control

SMILES: CCN(CC)CC(C)(O)CNc1cc(OC)cc2cccnc12 (configuration not stated)
- T/C (dose: 12.5 mg/kg/injection, schedule: Q01DX005 (ip), vehicle: saline): 97 % of control
- T/C (dose: 25.0 mg/kg/injection, schedule: Q01DX005 (ip), vehicle: saline): 101 % of control
- T/C (dose: 50.0 mg/kg/injection, schedule: Q01DX005 (ip), vehicle: saline): 93 % of control and 94 % of control

SMILES: NC(=O)N/N=C/Cn1ccc(=O)n(C/C=N/NC(N)=O)c1=O
- T/C [1]: 91 % of control
- T/C [2]: 87 % of control
- T/C [3]: 87 % of control

SMILES: CCOC(=O)C1=C(c2ccccc2)OC(N)=C(C#N)C1c1ccc(C)cc1 (configuration not stated)
- T/C [1]: 113 % of control
- T/C [2]: 101 % of control
- T/C [3]: 103 % of control

SMILES: NCCc1ccc(N)cc1
- T/C [13]: 100 % of control and 105 % of control
- T/C [14]: 100 % of control and 96 % of control
- T/C [15]: 86 % of control

SMILES: COC1=CC23CC(CC(c4cc(OC)c(OC)c(OC)c4)C2C)OC3=CC1=O (configuration not stated)
- T/C (dose: 4.38 mg/kg/injection, schedule: Q01DX005 (ip), vehicle: Klucel (hydroxypropylcellulose) (HPC)): 96 % of control
- T/C (dose: 8.75 mg/kg/injection, schedule: Q01DX005 (ip), vehicle: Klucel (hydroxypropylcellulose) (HPC)): 102 % of control
- T/C (dose: 17.5 mg/kg/injection, schedule: Q01DX005 (ip), vehicle: Klucel (hydroxypropylcellulose) (HPC)): 106 % of control

SMILES: O=c1c2ccccc2nc(CN(CCCl)CCCl)n1-c1ccc(O)c(CN(CCCl)CCCl)c1
- T/C (dose: 100.0 mg/kg/injection, schedule: Q01DX001 (ip), vehicle: saline with Tween-80): 151 % of control
- T/C (dose: 200.0 mg/kg/injection, schedule: Q01DX001 (ip), vehicle: saline with Tween-80): 155 % of control
- T/C (dose: 400.0 mg/kg/injection, schedule: Q01DX001 (ip), vehicle: saline with Tween-80): 270 % of control

SMILES: O=C1/C(=C/c2ccc(Br)cc2)CCc2ccccc21
- T/C [7]: 105 % of control
- T/C [8]: 111 % of control
- T/C [16]: 105 % of control

SMILES: O=C1CC2(CCCC2)C(=O)N1c1cccc([N+](=O)[O-])c1
- T/C [7]: 92 % of control
- T/C [8]: 106 % of control
- T/C [16]: 101 % of control

SMILES: Cc1ccc(S(=O)(=O)OCCN2CC2)cc1
- T/C [9]: 94 % of control
- T/C [10]: 89 % of control
- T/C [11]: 99 % of control

SMILES: Cc1ccc(NC(=O)Nc2ncn[nH]2)c(C)c1
- T/C [9]: 107 % of control
- T/C [10]: 100 % of control
- T/C [11]: 107 % of control

SMILES: CN1C(N)=NC(c2ccccc2)=CC1(C)c1ccccc1 (configuration not stated)
- T/C (dose: 6.25 mg/kg/injection, schedule: Q01DX005 (ip), vehicle: Klucel (hydroxypropylcellulose) (HPC)): 101 % of control
- T/C (dose: 12.5 mg/kg/injection, schedule: Q01DX005 (ip), vehicle: Klucel (hydroxypropylcellulose) (HPC)): 99 % of control
- T/C [12]: 108 % of control

SMILES: CNC/C=C/CN(C)C(=S)S
- T/C [13]: 108 % of control
- T/C [14]: 92 % of control
- T/C [15]: 96 % of control

SMILES: CNC1Cc2c[nH]c3cccc(c23)C12C=C(C)C(=O)O2 (configuration not stated)
- T/C (dose: 75.0 mg/kg/injection, schedule: Q01DX009 (ip), vehicle: saline with Tween-80): 120 % of control and 115 % of control
- T/C (dose: 150.0 mg/kg/injection, schedule: Q01DX009 (ip), vehicle: saline with Tween-80): 120 % of control and 115 % of control
- T/C (dose: 300.0 mg/kg/injection, schedule: Q01DX009 (ip), vehicle: saline with Tween-80): 120 % of control

SMILES: CC1Oc2cc3c(-c4c(O)cc(O)c5c(O)c6c(cc45)OC(C)C(C)C6=O)c(O)cc(O)c3c(O)c2C(=O)C1C (configuration not stated)
- T/C (dose: 1.25 mg/kg/injection, schedule: Q01DX005 (ip), vehicle: saline): 101 % of control
- T/C (dose: 1.25 mg/kg/injection, schedule: Q01DX005 (ip), vehicle: suspension in saline): 100 % of control
- T/C (dose: 2.5 mg/kg/injection, schedule: Q01DX005 (ip), vehicle: saline): 100 % of control
- T/C (dose: 2.5 mg/kg/injection, schedule: Q01DX005 (ip), vehicle: suspension in saline): 95 % of control
- T/C (dose: 5.0 mg/kg/injection, schedule: Q01DX005 (ip), vehicle: suspension in saline): 121 % of control
- T/C (dose: 10.0 mg/kg/injection, schedule: Q01DX005 (ip), vehicle: suspension in saline): 116 % of control
- T/C (dose: 20.0 mg/kg/injection, schedule: Q01DX005 (ip), vehicle: suspension in saline): 110 % of control

SMILES: N#C/C(=N\NC(=O)c1ccccc1)c1ccccc1
- T/C (dose: 12.5 mg/kg/injection, schedule: Q01DX005 (ip), vehicle: saline with Tween-80): 100 % of control
- T/C (dose: 25.0 mg/kg/injection, schedule: Q01DX005 (ip), vehicle: saline with Tween-80): 95 % of control
- T/C (dose: 50.0 mg/kg/injection, schedule: Q01DX005 (ip), vehicle: saline with Tween-80): 103 % of control and 95 % of control

SMILES: COC(=O)C(=O)c1c(-c2ccc(Cl)c(Cl)c2)[nH]c2[nH]n(-c3ccccc3)c(=O)c2c1=O
- T/C [4]: 94 % of control
- T/C [5]: 88 % of control
- T/C [6]: 88 % of control

SMILES: CCNC(=O)N(CC(=O)NC)c1ncc([N+](=O)[O-])s1
- T/C (dose: 100.0 mg/kg/injection, schedule: Q04DX002 (ip), vehicle: Klucel (hydroxypropylcellulose) (HPC)): 103 % of control
- T/C (dose: 200.0 mg/kg/injection, schedule: Q04DX002 (ip), vehicle: Klucel (hydroxypropylcellulose) (HPC)): 101 % of control
- T/C (dose: 400.0 mg/kg/injection, schedule: Q04DX002 (ip), vehicle: Klucel (hydroxypropylcellulose) (HPC)): 108 % of control

SMILES: CC(=O)NCC(O)CNC(C)=O
- T/C (dose: 6.25 mg/kg/injection, schedule: Q01DX009 (ip), vehicle: saline): 103 % of control
- T/C (dose: 12.5 mg/kg/injection, schedule: Q01DX009 (ip), vehicle: saline): 97 % of control
- T/C (dose: 25.0 mg/kg/injection, schedule: Q01DX009 (ip), vehicle: saline): 95 % of control
